Reference: patent US10154974B1, “Use of abscisic acid for the prevention and treatment of malaria” (The Regents of the University of California, priority 2015, dated 2018)

System: P. falciparum
Test: P. falciparum infection of A. stephensi fed a supplemented infected bloodmeal
Assay type: in vivo
Experimental: For P. falciparum infections A. stephensi were fed on a 1:1 ratio of P. falciparum-infected RBCs containing a treatment or diluent control and provided in a Hemotek Insect Feeding System (Discovery Workshops). ABA was eluted in 100% ethanol and stored at −20 C for up to 6 months. ABA stock was diluted with PBS and added into blood immediately before feeding for final concentrations of 10 nM and 100 nM. For L-NAME feeds mosquitoes were maintained on sugar cubes and water pads containing 1 mg/mL L-NAME for 72 hours before the feed and throughout the course of infection. Infection prevalence data were analyzed by Fisher's Exact Test. Oocyst intensities were analyzed by Mann-Whitney test.

COC(=O)[C@@H](N)CCCNC(=N)N[N+](=O)[O-] [L-NAME, Nω-Nitro-L-arginine methyl ester, reference compound]
P. falciparum infection prevalence (1 mg/ml L-NAME added to 100 nM ABA-supplemented infected bloodmeal): rescued P. falciparum infection prevalence back to control levels
P. falciparum infection (1 mg/ml L-NAME alone): no effect
